The source of these data is US20090155209A1, “NOVEL MACROCYCLIC INHIBITORS OF HEPATITIS C VIRUS REPLICATION” (priority 2007, published 2009).

A value given as a limit tells only on which side of the number the result lay.

The target in assay [1] is T1, NS3-NS4 (Hepatitis C virus genotype 1a, UniProt P27958). As to the kind of experiment: NS3-NS4 activity, IC50 (Example 37, Table 8). It counts as biochemical.
The target of assay [2] is T1, NS3-NS4. In words: cell-based. Particulars: EC50, NS3-NS4 activity.

T1 sequence (P27958 1027-1657): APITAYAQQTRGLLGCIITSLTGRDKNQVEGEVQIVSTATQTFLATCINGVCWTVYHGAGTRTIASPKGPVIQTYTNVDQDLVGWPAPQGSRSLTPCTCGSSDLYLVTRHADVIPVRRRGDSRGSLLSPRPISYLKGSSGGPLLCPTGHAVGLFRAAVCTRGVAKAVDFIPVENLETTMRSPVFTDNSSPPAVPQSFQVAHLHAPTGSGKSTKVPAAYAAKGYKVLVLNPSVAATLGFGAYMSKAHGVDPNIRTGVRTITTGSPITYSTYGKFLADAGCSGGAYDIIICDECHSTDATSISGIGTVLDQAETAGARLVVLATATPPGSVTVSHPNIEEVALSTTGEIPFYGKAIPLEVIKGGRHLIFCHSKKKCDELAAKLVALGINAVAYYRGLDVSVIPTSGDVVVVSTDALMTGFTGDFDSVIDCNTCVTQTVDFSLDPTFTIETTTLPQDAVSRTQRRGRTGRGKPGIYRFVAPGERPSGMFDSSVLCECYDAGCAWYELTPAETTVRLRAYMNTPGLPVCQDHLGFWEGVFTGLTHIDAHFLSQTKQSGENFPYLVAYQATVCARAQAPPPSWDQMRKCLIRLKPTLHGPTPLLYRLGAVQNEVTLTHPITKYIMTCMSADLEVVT
T1 sequence (P27958 1658-1711): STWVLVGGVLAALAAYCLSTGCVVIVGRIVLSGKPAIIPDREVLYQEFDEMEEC

Compound `O=C(N[C@H]1CCCCC/C=C\[C@@H]2C[C@@]2(C(=O)NS(=O)(=O)C2CC2)NC(=O)[C@@H]2C[C@@H](OC(=O)N3Cc4cccc(F)c4C3)CN2C1=O)OC1CCC1` [Compound 427] returned an IC50 at NS3-NS4 [1] below 100 nM. Besides, the EC50 on NS3-NS4 [2] is below 100 nM.

Regarding `Cc1ccc(S(=O)(=O)NC(=O)[C@@]23C[C@H]2/C=C\CCCCC[C@H](NC(=O)OC(C)(C)C)C(=O)N2C[C@H](OC(=O)N4Cc5cccc(F)c5C4)C[C@H]2C(=O)N3)cc1F` [Compound 301, (2R,6S,13aS,14aR,16aS,Z)-6-(tert-butoxycarbonylamino)-14a-(3-fluoro-4-methylphenylsulfonylcarbamoyl)-5,16-dioxo-1,2,3,5,6,7,8,9,10,11,13a,14,14a,15,16,16a-hexadecahydrocyclopropa[e]pyrrolo[1,2-a][1,4]diazacyclopentadecin-2-yl 4-fluoroisoindoline-2-carboxylate], the IC50 at NS3-NS4 [1] was below 100 nM. The same compound showed an EC50 on NS3-NS4 [2] below 100 nM.

On to `Cc1ccccc1CS(=O)(=O)NC(=O)[C@@]12C[C@H]1CCCCCCC[C@H](NC(=O)OC(C)(C)C)C(=O)N1C[C@H](OC(=O)N3Cc4cccc(F)c4C3)C[C@H]1C(=O)N2` [Compound 613], for which, on NS3-NS4 [1], the IC50 is below 100 nM. This compound also gave an EC50 at NS3-NS4 [2] below 100 nM.

At NS3-NS4 [1], `Cc1nc(N[C@H]2CCCCC/C=C\[C@@H]3C[C@@]3(C(=O)NS(=O)(=O)C3CC3)NC(=O)[C@@H]3C[C@@H](OC(=O)N4Cc5cccc(F)c5C4)CN3C2=O)sc1C` [Compound 231] showed a half-inhibitory concentration (IC50) below 100 nM. At NS3-NS4 [2], this compound had an EC50 below 100 nM.

Regarding `O=C1N[C@]2(C(=O)NS(=O)(=O)C3CC3)C[C@H]2/C=C\CCCCC[C@H](Nc2nc(-c3ccncc3)cs2)C(=O)N2C[C@H](OC(=O)N3Cc4cccc(F)c4C3)C[C@@H]12` [Compound 210], the half-inhibitory concentration (IC50) against NS3-NS4 [1] is below 100 nM. The EC50 at NS3-NS4 [2] is below 100 nM.

As for `Cc1cc(F)ccc1S(=O)(=O)NC(=O)[C@@]12C[C@H]1/C=C\CCCCC[C@H](NC(=O)OC(C)(C)C)C(=O)N1C[C@H](OC(=O)N3Cc4cccc(F)c4C3)C[C@H]1C(=O)N2` [Compound 346], on NS3-NS4 [1], the half-maximal inhibitory concentration (IC50) is below 100 nM. At NS3-NS4 [2], this compound yielded an EC50 below 100 nM.

For the compound `CC(C)(C)OC(=O)N[C@H]1CCCCC/C=C\[C@@H]2C[C@@]2(C(=O)NS(=O)(=O)Cc2ccc(Cl)cc2Cl)NC(=O)[C@@H]2C[C@@H](OC(=O)N3Cc4cccc(F)c4C3)CN2C1=O` [Compound 524], the IC50 against NS3-NS4 [1] is below 100 nM. The compound further had an EC50 on NS3-NS4 [2] of 100 to 1000 nM.

At NS3-NS4 [1], `CC(C)(C)ONC(=O)[C@@]12C[C@H]1CCCCCCC[C@H](NC(=O)OC(C)(C)C)C(=O)N1C[C@H](OC(=O)N3Cc4cccc(F)c4C3)C[C@H]1C(=O)N2` [Compound 815] yielded an IC50 below 100 nM. This compound displayed an EC50 on NS3-NS4 [2] below 100 nM.

Turning to `O=C1N[C@]2(C(=O)NS(=O)(=O)C3CC3)C[C@H]2/C=C\CCCCC[C@H](Nc2nc(-c3ccc(F)cc3)cs2)C(=O)N2C[C@H](Oc3nc(-c4ccccc4)nc4ccccc34)C[C@@H]12` [Compound 204, (2R,6S,13aS,14aR,16aS,Z)-N-(cyclopropylsulfonyl)-6-(4-(4-fluorophenyl)thiazol-2-ylamino)-5,16-dioxo-2-(2-phenylquinazolin-4-yloxy)-1,2,3,5,6,7,8,9,10,11,13a,14,14a,15,16,16a-hexadecahydrocyclopropa[e]pyrrolo[1,2-a][1,4]diazacyclopentadecine-14a-carboxamide], the IC50 at NS3-NS4 [1] is below 100 nM. Besides, the EC50 at NS3-NS4 [2] is below 100 nM.

For the compound `CC1(OC(=O)N[C@H]2CCCCC/C=C\[C@@H]3C[C@@]3(C(=O)NS(=O)(=O)C3CC3)NC(=O)[C@@H]3C[C@@H](OC(=O)N4Cc5cccc(F)c5C4)CN3C2=O)CC1` [Compound 404, (2R,6S,13aS,14aR,16aS,Z)-14a-(cyclopropylsulfonylcarbamoyl)-6-((1-methylcyclopropoxy)carbonylamino)-5,16-dioxo-1,2,3,5,6,7,8,9,10,11,13a,14,14a,15,16,16a-hexadecahydrocyclopropa[e]pyrrolo[1,2-a][1,4]diazacyclopentadecin-2-yl 4-fluoroisoindoline-2-carboxylate], the 50% inhibitory concentration (IC50) on NS3-NS4 [1] was below 100 nM. This compound had an EC50 on NS3-NS4 [2] below 100 nM.

For `O=C1N[C@]2(C(=O)NS(=O)(=O)C3CC3)C[C@H]2/C=C\CCC(F)(F)CC[C@H](NC(=O)C2(C(F)(F)F)CC2)C(=O)N2C[C@H](OC(=O)N3Cc4cccc(F)c4C3)C[C@@H]12` [Compound 408], the IC50 on NS3-NS4 [1] was below 100 nM. This compound gave an EC50 at NS3-NS4 [2] below 100 nM.

As to `CCC1(S(=O)(=O)NC(=O)[C@@]23C[C@H]2CCCCCCC[C@H](NC(=O)OC(C)(C)C)C(=O)N2C[C@H](OC(=O)N4Cc5cccc(F)c5C4)C[C@H]2C(=O)N3)CC1` [Compound 650], the IC50 against NS3-NS4 [1] was below 100 nM. This compound also showed an EC50 on NS3-NS4 [2] below 100 nM.

Turning to `CC(C)(C)OC(=O)N[C@H]1CCCCC/C=C\[C@@H]2C[C@@]2(C(=O)NS(=O)(=O)c2ccc(F)cc2F)NC(=O)[C@@H]2C[C@@H](OC(=O)N3Cc4cccc(F)c4C3)CN2C1=O` [Compound 310], the IC50 on NS3-NS4 [1] is below 100 nM. On NS3-NS4 [2], this compound yielded an EC50 below 100 nM.

Turning to `O=C(N[C@H]1CCCCC/C=C\[C@@H]2C[C@@]2(C(=O)NS(=O)(=O)C2CC2)NC(=O)[C@@H]2C[C@@H](OC(=O)N3Cc4cccc(F)c4C3)CN2C1=O)OC1CCOCC1` [Compound 401, (2R,6S,13aS,14aR,16aS,Z)-14a-(cyclopropylsulfonylcarbamoyl)-5,16-dioxo-6-((tetrahydro-2H-pyran-4-yloxy)carbonylamino)-1,2,3,5,6,7,8,9,10,11,13a,14,14a,15,16,16a-hexadecahydrocyclopropa[e]pyrrolo[1,2-a][1,4]diazacyclopentadecin-2-yl 4-fluoroisoindoline-2-carboxylate], at NS3-NS4 [1], the IC50 is below 100 nM. Also, the EC50 on NS3-NS4 [2] is below 100 nM.

Turning to `Cc1ccc(S(=O)(=O)NC(=O)[C@@]23C[C@H]2/C=C\CCCCC[C@H](NC(=O)OC(C)(C)C)C(=O)N2C[C@H](OC(=O)N4Cc5cccc(F)c5C4)C[C@H]2C(=O)N3)cc1` [Compound 318], on NS3-NS4 [1], the IC50 is below 100 nM. Further, on NS3-NS4 [2], the EC50 was below 100 nM.

At NS3-NS4 [1], `O=C1N[C@]2(C(=O)NS(=O)(=O)C3CC3)C[C@H]2/C=C\CCCCC[C@H](Nc2nc(-c3cccc(C(F)(F)F)c3)cs2)C(=O)N2C[C@H](OC(=O)N3Cc4cccc(F)c4C3)C[C@@H]12` [Compound 218] registered a half-inhibitory concentration (IC50) below 100 nM. Besides, the EC50 on NS3-NS4 [2] was below 100 nM.

The compound `O=C1N[C@]2(C(=O)NS(=O)(=O)C3CC3)C[C@H]2/C=C\CCCCC[C@H](NC(=O)N2CC(F)(F)C2)C(=O)N2C[C@H](OC(=O)N3Cc4cccc(F)c4C3)C[C@@H]12` [Compound 418] yielded an IC50 on NS3-NS4 [1] below 100 nM. On NS3-NS4 [2], this compound showed an EC50 below 100 nM.

For the compound `CC(C)(C)OC(=O)N[C@H]1CCCCC/C=C\[C@@H]2C[C@@]2(C(=O)NS(=O)(=O)Cc2ccc(F)c(F)c2)NC(=O)[C@@H]2C[C@@H](OC(=O)N3Cc4cccc(F)c4C3)CN2C1=O` [Compound 522], the IC50 against NS3-NS4 [1] was below 100 nM. For the same compound, the EC50 on NS3-NS4 [2] lay in the range of 100 to 1000 nM.

In the case of `CC(C)(C)OC(=O)N[C@H]1CCCCC/C=C\[C@@H]2C[C@@]2(C(=O)NS(=O)(=O)Cc2ccc(Cl)cc2)NC(=O)[C@@H]2C[C@@H](OC(=O)N3Cc4cccc(F)c4C3)CN2C1=O` [Compound 512], the IC50 against NS3-NS4 [1] was below 100 nM. The concentration giving a half-maximal response (EC50) on NS3-NS4 [2] was below 100 nM.

`CC(C)(C)OC(=O)N[C@H]1CCCCC/C=C\[C@@H]2C[C@@]2(C(=O)NS(=O)(=O)c2cc(Cl)ccc2Cl)NC(=O)[C@@H]2C[C@@H](OC(=O)N3Cc4cccc(F)c4C3)CN2C1=O` [Compound 316] had a half-maximal inhibitory concentration (IC50) against NS3-NS4 [1] below 100 nM. The same compound had an EC50 on NS3-NS4 [2] below 100 nM.
